Our source for the EC50 values is PubChem BioAssay AID602427 (Sanford-Burnham Center for Chemical Genomics, 2012).

Calls of active or inactive are those of the source.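 The calls were made as follows: active = EC50 at or below 20 micromolar; inactive = the rest.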

Chain of Neurotensin receptor type 1 (Homo sapiens) (P30989 whole entry, looked up, the tested form may be a part): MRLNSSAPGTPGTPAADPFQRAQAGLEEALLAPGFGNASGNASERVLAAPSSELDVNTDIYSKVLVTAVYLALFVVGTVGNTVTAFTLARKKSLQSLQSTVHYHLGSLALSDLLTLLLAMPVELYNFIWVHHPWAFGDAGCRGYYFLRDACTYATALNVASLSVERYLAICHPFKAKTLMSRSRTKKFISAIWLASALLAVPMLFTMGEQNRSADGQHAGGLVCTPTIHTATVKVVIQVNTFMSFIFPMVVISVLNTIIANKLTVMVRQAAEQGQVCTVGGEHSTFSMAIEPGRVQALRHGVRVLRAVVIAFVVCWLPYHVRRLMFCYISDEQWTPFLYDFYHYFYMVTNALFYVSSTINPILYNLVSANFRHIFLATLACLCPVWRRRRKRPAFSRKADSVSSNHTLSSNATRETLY

This assay has as its target Neurotensin receptor type 1 (Homo sapiens) (UniProt P30989). The assay can be described thus: NTSR1 activation via enzyme-fragment complementation – cell-based, luminescence, CHO-K1 NTSR1 PathHunter, orthogonal assay for NTR1 agonist project, SAR follow-up (AID 602427).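 Also: agonist potency for NTR1 activation where higher luminescence means more arrestin recruitment.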 The note with it: CHO-K1 NTSR1 PathHunter beta-arrestin.
Broadly, the EC50 is the concentration that produces a half-maximal response. With `CCN(CC)c1ccc(/C=N/Nc2nc(-c3ccc(S(=O)(=O)N(C)C)cc3)cs2)cc1`, the EC50 is > 33 µM (inactive).
With `CN(C)S(=O)(=O)c1ccc(-c2csc(N/N=C/c3ccccc3)n2)cc1`, the EC50 is > 33 µM (inactive).
Regarding `CC(C)C[C@H](NC(=O)c1cn(-c2ccnc3ccccc23)c2ccccc12)C(=O)O`, the EC50 was > 33 µM (inactive).
In the case of `Cc1ccc(-c2nnc3c4cc5c(cc4n(Cc4ccccc4)cc2-3)OCO5)cc1C`, the EC50 was > 33 µM (inactive).
For the compound `CCOc1ccc(-c2nnc3c4cc(OC)c(OC)cc4n(Cc4ccccc4)cc2-3)cc1`, the EC50 entry is “inactive”.
With `COc1ccc(Cn2cc(C(=O)c3ccc(OC)cc3)c(=O)c3ccccc32)cc1`, the EC50 was > 33 µM (inactive).
Regarding `Cc1cccc(C)c1-c1nc(C(=O)N[C@@H](CC(C)C)C(=O)O)cn1-c1ccnc2cc(Cl)ccc12`, the EC50 was > 33 µM (inactive).
For the compound `N=c1c2ccccc2nc(SCc2ccc(Cl)cc2)n1Cc1ccccc1`, the EC50 was > 33 µM (inactive).
With `COc1cc2c(=O)c(C(=O)c3ccc(F)cc3)cn(Cc3ccc(OC(F)(F)F)cc3)c2cc1OC`, the EC50 was > 33 µM (inactive).
With `CC(C)C[C@H](NC(=O)c1cn(-c2ccnc3cc(Cl)ccc23)c(-c2c(Cl)cccc2Cl)n1)C(=O)O` the figure was > 33 µM (inactive).
Regarding `CCOc1ccc(-c2nnc3c4cc(OC)c(OC)cc4n(Cc4ccc(C)cc4)cc2-3)cc1`, the EC50 is > 33 µM (inactive).
`COc1cc2c3nnc(-c4ccccc4)c-3cn(Cc3ccc(C)cc3)c2cc1OC`: the EC50 is > 33 µM (inactive).
Consider `COc1cc2c(=O)c(C(=O)c3ccc(F)cc3)cn(Cc3ccc(N(C)C)cc3)c2cc1OC`, for which the EC50 is > 33 µM (inactive).
On to `COc1cc2nc(-c3ccccc3)nc(N3CCN(c4ccccc4)CC3)c2cc1OC`, for which the EC50 is > 33 µM (inactive).
For the compound `COc1ccc(Cn2c(SCc3cc(C)ccc3C)nc3cc(OC)c(OC)cc3c2=N)cc1Cl`, the EC50 is > 33 µM (inactive).
To `COc1cc2c3nnc(-c4ccc(C)c(C)c4)c-3cn(Cc3ccc(F)cc3)c2cc1OC` belongs > 33 µM (inactive); to `COc1ccc2c3nnc(-c4ccc(C)cc4)c-3cn(Cc3ccccc3)c2c1`, > 33 µM (inactive); to `CCOc1ccc(-c2nnc3c4cc(OC)c(OC)cc4n(Cc4ccc(F)cc4)cc2-3)cc1`, “inactive”.
To `COc1ccc(C(=O)c2cn(Cc3ccncc3)c3ccccc3c2=O)cc1` belongs > 33 µM (inactive); to `COc1cc2nc(C3CCCC3)nc(N3CCN(c4ccccc4OC)CC3)c2cc1OC`, “inactive”.
`COc1cc2ncc3c(-c4ccc(F)cc4)n[nH]c3c2cc1OC`: the EC50 is > 33 µM (inactive).
As for `O=C(c1ccccc1)c1cn(Cc2ccccc2)c2ccccc2c1=O`, the EC50 was > 33 µM (inactive).
As for `COc1cccc(OC)c1-c1cc(C(=O)N[C@@H](CC(C)C)C(=O)OC(C)(C)C)nn1-c1ccnc2cc(Cl)ccc12`, the EC50 was > 33 µM (inactive).
To `COc1ccc(-c2nnc3c4cc(OC)c(OC)cc4n(Cc4ccccc4)cc2-3)cc1` belongs > 33 µM (inactive); to `Cc1ccc(-n2ncc3c(N4CCN(c5ccc(F)cc5)CC4)ncnc32)c(C)c1`, > 33 µM (inactive); to `COc1cccc(N2CCN(c3nc(C4CCC4)nc4cc(OC)c(OC)cc34)CC2)c1`, > 33 µM (inactive).
As for `O=S(=O)(c1ccc(-c2csc(N/N=C/c3ccco3)n2)cc1)N1CCOCC1`, the EC50 was > 33 µM (inactive).
With `Cc1ccc(-n2ncc3c(N4CCN(c5cccc(Cl)c5)CC4)ncnc32)c(C)c1` the figure was > 33 µM (inactive); with `COc1cc2c3nnc(-c4ccc(C)c(C)c4)c-3cn(Cc3ccccc3)c2cc1OC`, “inactive”; with `CN(C)S(=O)(=O)c1ccc(-c2csc(N/N=C/c3ccco3)n2)cc1`, > 33 µM (inactive).
Turning to `COc1ccc(-c2nnc3c4ccccc4n(Cc4ccncc4)cc2-3)cc1`, the EC50 was > 33 µM (inactive).
